Assay results from patent publication US9254266B2, “Inhibiting surface enhanced crystallization of amorphous pharmaceuticals with ultrathin coatings” (Wisconsin Alumni Research Foundation, priority 2007, dated 2016).
Converted amounts (≈) assume the structure as drawn.

Legend:
Type in all cases: physicochemical
[1] = Water contact angle on amorphous IMC film; details: 22° C., 70% R.H.
Description: Contact Angle Measurements. The measurements were performed at 22° C. and 70% R.H. using a method similar to that of Zografi and Tam. […] The water droplet thus formed was about 3 mm in diameter. A side view of the droplet was recorded with a digital camera and the contact angle was measured from the image (Image J1.34 S). Each amorphous film was measured three times at different sites. Three samples were measured for each coating condition.
The water contact angle characterizes the wetting ability of the surface. The measurement was performed with amorphous IMC films on microscope cover glasses. […] The contact angle increased and decreased accordingly with additional layers of PDDA and PSS.

[2] = Surface crystallization and crystal growth of amorphous IMC films (light microscopy)
Description: Deposition of gold coatings. A Denton Vacuum Desk II (Denton Vacuum, Moorestown, N.J.) was used to deposit a gold coating on amorphous IMC. […] Under these conditions, the deposition rate was ca. 10 nm/30 s, providing a gold coating of about 10 nm in thickness. […] The coated film was golden and reflective. Deposition of LbL polyelectrolyte coatings on amorphous films. […] (Tg−20° C.), and gently removing one cover glass. To coat several films at once, they were loaded into a Teflon rack and immersed into the PDDA solution for 15 minutes. The samples were washed twice in Milli-Q water to remove the excess PDDA and immersed in the PSS solution. This procedure was repeated until the desired number of polymer layers was reached. The coated samples were left on a Whatman filter paper to remove the excess liquid on the slide and dried in a vacuum (0.4 mTorr) at 22° C. for 3 hrs. X-ray powder diffraction (XRPD). XRPD was performed with a Bruker D8 Advance X-ray diffractometer, which was equipped with a CuKα source (λ=1.54056 Å) operating at a tube load of 40 kV and 40 mA. The divergence slit size was 1 mm, the receiving slit, 1 mm, and the detector slit, 0.1 mm. Data was collected by a high-resolution Sol-X detector. Each sample was scanned between 2 and 40° (2θ) with a step size of 0.02° and a maximum scan rate of 3 s/step. The NIST standard SRM 1976 was used to check the instrument's calibration and performance. Samples of small quantities were analyzed on a Si(510) zero-background holder. Polarized light microscopy (PLM) was performed with a Nikon Optiphot Pol 2 microscope equipped with an Olympus video camera. The video image was calibrated against a 1-mm stage micrometer (100 divisions). Differential scanning calorimetry (DSC) was conducted in crimped Al pans using a TA Instruments Q1000 unit under 50 mL/min N2 purge. […] (Tg−2° C.). […] The crystals were birefringent. […] All samples were tested at 40° C. in a desiccator. […] Moreover, coating a partially crystallized sample with gold inhibited further crystallization. […] The set of experiments was again performed with amorphous IMC films prepared on microscope cover glasses. […] By contrast, only a small percentage of a coated surface was covered by crystals (white spots in the pictures) under the same conditions (FIG. 4b). Moreover, the crystals that did form on the coated surface grew much more slowly than those on the uncoated surface.

[3] = Flowability measurements and tablet properties of IMC powder
Description: Flowability measurements. […] To determine tapped density and compressibility, approximately 1.5 g of powder was poured into a 10-ml cylinder. The initial volume (V0) yielded the initial bulk density D0 (“fluff or poured bulk density”). The powder was then tapped for 5 minutes to obtain the final bulk volume (Vf) and the final bulk density Df (“equilibrium, tapped or consolidated bulk density”). The percent (%) compressibility (Carr's Index) was calculated from (Df−D0)/Df×100, which is another measure of powder flowability (% compressibility higher than 40% is thought to indicate a non-flowing, cohesive powder; % compressibility lower than 28% is thought to indicate a fluid to free-flowing powder).
Uncoated amorphous IMC powder was cohesive and flowed with difficulty, while the coated powder flowed more easily. For the uncoated powder, the angle of repose was 36°, signifying acceptable flowability.

[4] = Zeta potential of IMC particles; details: particles suspended in 0.01 M NaCl
Description: Zeta potentials were measured with a ZetaSizer 3000HSA (Malvern Instruments, USA). Sample particles (ca. 5 mg) were dispersed in 0.01 M NaCl. […] Each reported result was the average of three measurements.
Before coating amorphous IMC by this method, the sign of its surface charge in a coating solution was determined. […] (The pH of the coating solutions was 6.1 (PDDA) and 6.4 (PSS)). […] Coating with one layer of PDDA reversed the surface charge to positive (ζ-potential=+37 mV); adding the next layer (PSS) reversed the surface charge to negative again (ζ-potential=−32 mV); and so on.

[5] = Intrinsic dissolution rate (IDR), USP Dissolution Apparatus II; details: 0.1 M phosphate buffer pH 7.2, 37° C.; for IDR: 50 RPM, first 15 minutes, no storage
Description: Measurement of intrinsic dissolution rate (IDR). The IDR was measured using a USP Dissolution Apparatus II (rotating paddle, model RC-8D, Vanguard, Spring, Tex.) following standard procedures. […] Tablets without visible chipping or surface imperfection were used for dissolution measurement. Each tablet used for IDR measurement was coated on one side and around the rim with water-impervious shellac (clear nail polish) that contained as the primary ingredient tosylamide epoxy resin. Conditions of the IDR measurement were as follows: 500 ml of 0.1 M phosphate buffer (pH 7.2), 50 RPM of paddle speed, 1 inch between the tablet and the paddle, and 37° C. Samples were taken every 2.5 minutes up to 15 minutes, every 5 minutes up to 30 minutes, and every 10 minutes up to 60 minutes. Each sample (2 ml) of the solution was drawn with a syringe and filtered through a 0.22-μm filter needle. The sample's concentration was determined by UV-visible spectrometry at 318 nm. The analyzed solution was returned to the dissolution vessel to maintain the constant volume. For each amorphous IMC material studied (with and without coating, with and without aging), the IDR measurement was performed six times with three independently prepared materials as described above.
As shown above in FIG. 4, because one layer of PDDA was nearly as effective as several layers of PDDA and PSS in inhibiting surface crystallization, this example used materials coated with a single layer of PDDA. Moreover, thinner coatings are expected to maximize the rate of dissolution. […] For comparison, the IDR of γ IMC was also measured. Each data point in FIG. 8 is the average of six measurements. For each sample of amorphous IMC (uncoated or coated), the six measurements were performed with three independently prepared materials (including melting, grinding, coating, and tableting). […] Similarly, it is assumed that the IDR of amorphous IMC was measured under a sink condition.

[6] = Crystallization of amorphous IMC powder on storage (XRPD, DSC)
Description: The particles were sieved through to a 75 μm screen, transferred to a 200 ml beaker containing 100 ml of the PDDA solution, and kept in contact with the solution for 15 minutes. The suspension was filtered through #2 Whatman filter paper to remove the supernatant and washed with Milli-Q water. Vacuum was then applied to dry the particles for at least 3 hrs.
X-ray powder diffraction (XRPD). XRPD was performed with a Bruker D8 Advance X-ray diffractometer, which was equipped with a CuKα source (λ=1.54056 Å) operating at a tube load of 40 kV and 40 mA. The divergence slit size was 1 mm, the receiving slit, 1 mm, and the detector slit, 0.1 mm. Data was collected by a high-resolution Sol-X detector. Each sample was scanned between 2 and 40° (2θ) with a step size of 0.02° and a maximum scan rate of 3 s/step. The NIST standard SRM 1976 was used to check the instrument's calibration and performance. Samples of small quantities were analyzed on a Si(510) zero-background holder. Polarized light microscopy (PLM) was performed with a Nikon Optiphot Pol 2 microscope equipped with an Olympus video camera. The video image was calibrated against a 1-mm stage micrometer (100 divisions). Differential scanning calorimetry (DSC) was conducted in crimped Al pans using a TA Instruments Q1000 unit under 50 mL/min N2 purge.
The larger the exotherm, the greater the amorphous fraction before DSC analysis. […]

[7] = Solubility of γ IMC in buffer; details: aqueous buffer, thermodynamic from solid; 0.1 M PBS buffer pH 7.2, 37° C.

SMILES	water contact angle [1] [°]	surface crystallization in vacuum compared with desiccated ambient air ([2]; 0.4 mTorr and 22° C.)	surface covered by crystals after 20 days ([2]; 15 μm films on cover glasses, 20 days at 40° C.)	crystallization of film between two cover glasses ([2]; below Tg (42° C.), no free surface)	appearance of crystals at free surface ([2]; one cover glass removed, 40° C.)	coverage of free surface with crystals on storage ([2]; uncoated film, 40° C.)	% Compressibility ([3]; Carr's Index, (Df−D0)/Df×100) [%]	angle of repose ([3]; powder) [°]	angle of repose ([3]; powder sieved through 75 μm screen)	Tapped Density ([3]; powder tapped for 5 minutes) [g/mL]	Tablet Bulk Density ([3]; tablets made with a Carver press) [g/mL]	Tablet Porosity ([3]; true density of 1.31 g/cm^3 used) [%]	ζ-potential [4]	time until tablet began crystallizing to α IMC in the dissolution medium [5]	IDR ([5]; listed as Uncoated) [mg/cm^2/min]	IDR after 2 d ([5]; after 2 days of storage at 40° C.) [mg/cm^2/min]	solid state of powder after 2 days (PXRD) ([6]; 2 days at 40° C., powder sieved through 75 μm)	DSC crystallization exotherm after 2 days ([6]; 2 days of storage at 40° C.)	solubility [7] [µg/mL]	IDR [5] [mg/cm^2/min]
COc1ccc2c(c1)c(CC(=O)O)c(C)n2C(=O)c1ccc(Cl)cc1 [amorphous IMC, 1-(p-chlorobenzoyl)-5-methoxy-2-methylindole-3-acetic acid]	44	same rate of crystal growth	completely covered with crystals	does not crystallize for months	crystals appear in days	After two or three weeks, the surface was fully covered with crystals	42 ± 1	36	36.1 ± 2.3	0.52 ± 0.03	1.07 ± 0.03	18 ± 2	−41 mV	approximately 20 minutes	0.56	0.10	crystallized into γ IMC	disappears	–	–
COc1ccc2c(c1)c(CC(=O)O)c(C)n2C(=O)c1ccc(Cl)cc1 [γ IMC, 1-(p-chlorobenzoyl)-5-methoxy-2-methylindole-3-acetic acid]	–	–	–	–	–	–	–	–	–	–	–	–	negatively charged	–	–	–	–	–	1500 (≈ 4.19 mM)	0.07
